# Patent publication US3992540A, “3-Quinoline-substituted 4-oxy-carboxamides” (Roussel-UCLAF, priority 1974, dated 1976)
# Experiments:
# [1] = system: stretchings provoked by intraperitoneal injection of acetic acid to mice; assay: Analgesic activity, acetic acid stretching (writhing) test in mice (Koster et al); assay type: in vivo; conditions: Mus musculus, oral, 30 minutes before acetic acid injection (100 mg/kg i.p.), stretchings totaled over 15 minutes, read-out: DA50, dose which reduced by 50% the number of stretchings as compared to the controls
# Experimental: The test was based on that of Koster et al [Fed. Proc., Vol. 18 (1959), p. 412] in which the intraperitoneal injection of acetic acid to mice provokes repeated stretching and twisting movements which persist for more than 6 hours. Analgesics prevent or suspress these syndromes which are considered to be an exteriorization of a diffuse abdominal pain. A 1% solution of acetic acid in water was used at a dose of 0.01 ml/g or 100 mg/kg of acetic acid to release the syndrome.
# The test product was orally administered 30 minutes before the acetic acid injection and the mice were fasted for 24 hours before the start of the test. The stretchings for the mice were observed and totaled for each mouse in a 15 minutes observation period starting just after the acetic acid injection. The results were expressed as DA50, that dose which reduced by 50% the number of stretchings as compared to the controls and the DA50 for N-[2-thiazolyl]-4-hydroxy-8 -trifluoromethyl-3-quinoline-carboxamide was 5 mg/kg; for N-[2 -thiazolyl]-4-hydroxy-8-chloro-3-quinoline-carboxamide was 4 mg/kg; and for N-[2-thiazolyl]-4-hydroxy-7-trifluoromethyl- 3-quinoline-carboxamide was 7 mg/kg.
# [2] = Acute toxicity in mice, intraperitoneal; conditions: mouse, in vivo, ip, observed for a week, graphically determined by Miller et al method, read-out: DL50
# Experimental: The acute toxicity was determined on groups of 10 mice weighing between 18-22 g and the test product was administered intraperitoneally in increasing dose in suspensions at 0.25 % in carboxymethyl-cellulose added of Tween 80.
# mice = conditions: mouse, in vivo, po, 500 mg/kg
Compound,ED50 [1],LD50 at 168 h [2],tolerance when orally administered (mice)
O=C(Nc1nccs1)c1cnc2c(C(F)(F)F)cccc2c1O [N-[2-thiazolyl]-4-hydroxy-8-trifluoromethyl-3-quinoline-carboxamide],5 mg/kg,225 mg/kg,very well tolerated
O=C(Nc1nccs1)c1cnc2cc(C(F)(F)F)ccc2c1O [N-[2-thiazolyl]-4-hydroxy-7-trifluoromethyl-3-quinoline-carboxamide],7 mg/kg,,
O=C(Nc1nccs1)c1cnc2c(Cl)cccc2c1O [N-[2-thiazolyl]-4-hydroxy-8-chloro-3-quinoline-carboxamide],4 mg/kg,,
